The assay has as its target T1, rat uterus cytoplasm estrogen receptor (Rattus norvegicus, UniProt P06211).
T1 construct: the homogenate was centrifuged to give a cytoplasm fraction; from tissue; host or cells: uterus of female SD rats aged 3 to 4 weeks, cytoplasm fraction
T1 sequence (P06211 1-600): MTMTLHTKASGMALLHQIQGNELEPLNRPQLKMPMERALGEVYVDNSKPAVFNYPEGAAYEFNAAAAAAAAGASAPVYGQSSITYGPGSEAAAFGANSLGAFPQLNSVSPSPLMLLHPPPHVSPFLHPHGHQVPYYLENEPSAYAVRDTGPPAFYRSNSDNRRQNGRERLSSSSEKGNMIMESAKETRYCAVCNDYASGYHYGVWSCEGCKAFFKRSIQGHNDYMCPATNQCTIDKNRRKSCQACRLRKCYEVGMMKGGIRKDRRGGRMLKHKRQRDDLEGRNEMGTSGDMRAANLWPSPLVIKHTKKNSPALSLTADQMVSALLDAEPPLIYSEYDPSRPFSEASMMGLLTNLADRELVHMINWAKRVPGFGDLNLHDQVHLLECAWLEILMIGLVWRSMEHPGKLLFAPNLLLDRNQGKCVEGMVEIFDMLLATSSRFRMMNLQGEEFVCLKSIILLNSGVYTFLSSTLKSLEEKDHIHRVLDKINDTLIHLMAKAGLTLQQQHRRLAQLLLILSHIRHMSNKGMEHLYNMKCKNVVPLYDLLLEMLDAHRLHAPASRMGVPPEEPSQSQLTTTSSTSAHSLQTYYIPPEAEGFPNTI
Briefly: inhibition of specific binding of [3H]-moxestrol to rat uterus cytoplasm estrogen receptor. On the set-up: species or system rat (female SD). The conditions noted are these: relative to moxestrol as control compound; rat uterus cytoplasm fraction; 4° C., 16 hours; DCC method. The protocol:
Test for inhibitory activity against the specific binding of [^3 H]-moxestrol to the rat uterus cytoplasm estrogen receptor
The above activity was measured essentially as described in the literature [J. Biol. Chem., 258 (5), 3173 (1973) and Biochem. Pharmacol., 43 (12), 2511 (1992)].
Thus, the uterus was excised from female SD rats aged 3 to 4 weeks and homogenized in 6 volumes of TETG buffer (10 mM Tris-hydrochloride, 1 mM EDTA, 12 mM thioglycerol and 10% glycerol) and the homogenate was centrifuged to give a cytoplasm fraction. ^3 H-Moxestrol and each test compound were added to this cytoplasm fraction and each mixture was incubated at 4° C. for 16 hours to allow binding to the estrogen receptor in the cytoplasm fraction.
Then, the free form of ^3 H-moxestrol was removed by the DCC method and the bound form of ^3 H-moxestrol was quantitated using a liquid scintillation counter.
Moxestrol was used as a control compound and the relative binding affinity (RBA), which was defined as the ^3 H-moxestrol binding inhibiting effect (IC50) ratio, was determined as follows: [formula]
The thus-obtained RBA values for the respective test compounds are shown below in Table 21.

SMILES strings stand for the structures.

In the case of `Cc1c(-c2ccc(Sc3ccccc3)cc2)n(CCCCCCNC(C)C)c2ccc(O)cc12` [Example 161], the “RBA (relative binding affinity, 3H-moxestrol binding inhibiting effect (IC50) ratio)” value is given as 46%.
In the case of `CSc1ccc(-c2c(C)c3cc(O)ccc3n2CCCCCCNC2CCCC2)cc1` [Example 172] it was 44%.
In the case of `CSc1ccc(-c2c(C)c3cc(O)ccc3n2CCCCCCNC2CCC2)cc1` [Example 175, 1-(6-cyclobutylaminohexyl)-5-hydroxy-3-methyl-2-(4-methylthiophenyl)indole] it was 60%.
In the case of `CSc1ccc(-c2c(C)c3cc(O)ccc3n2CCCCCCNC2CC2)cc1` [Example 176] it was 64%.
For the compound `CSc1ccc(-c2c(C)c3cc(O)ccc3n2CCCCCCNC(C)(C)C)cc1` [Example 178], the “RBA (relative binding affinity, 3H-moxestrol binding inhibiting effect (IC50) ratio)” value is recorded as 57%.
In the case of `CCC(C)NCCCCCCn1c(-c2ccc(SC)cc2)c(C)c2cc(O)ccc21` (stereo not drawn) [Example 179] it was 60%; in that of `CSc1ccc(-c2c(C)c3cc(O)ccc3n2CCCCCCNCc2ccccc2)cc1` [Example 181], 52%.
In the case of `CCC(C)(C)NCCCCCCn1c(-c2ccc(SC)cc2)c(C)c2cc(O)ccc21` [Example 182] it was 57%; in that of `O=C(c1ccc(OCCN2CCCC2)cc1)n1c(-c2ccc(Sc3ccccc3)cc2)cc2cc(O)ccc21` [Example 234, 5-hydroxy-2-(4-phenylthiophenyl)-1-[4-{2-(1-pyrrolidinyl)ethoxy}benzoyl]indole], 50%; in that of `O=C(c1ccc(OCCN2CCCCC2)cc1)n1c(-c2ccc(Sc3ccccc3)cc2)cc2cc(O)ccc21` [Example 236], 53%.
Take `O=C(c1ccc(OCCCN2CCCC2)cc1)n1c(-c2ccc(Sc3ccccc3)cc2)cc2cc(O)ccc21` [Example 238]: the “RBA (relative binding affinity, 3H-moxestrol binding inhibiting effect (IC50) ratio)” value is 49%.
In the case of `O=C(c1ccc(OCCCN2CCCCC2)cc1)n1c(-c2ccc(Sc3ccccc3)cc2)cc2cc(O)ccc21` [Example 239] it was 73%; in that of `O=C(c1ccc(OCCn2cncn2)cc1)n1c(-c2ccc(Sc3ccccc3)cc2)cc2cc(O)ccc21` [Example 246], 57%.
With `CSc1ccc(-c2c(C)c3cc(O)ccc3n2CCCCCCCC(=O)N(C)C)cc1` [Example 253], the “RBA (relative binding affinity, 3H-moxestrol binding inhibiting effect (IC50) ratio)” value was found to be 94%.
As for `CSc1ccc(-c2c(C)c3cc(O)ccc3n2CCCCCCCC(=O)NC2CCC2)cc1` [Example 254], the “RBA (relative binding affinity, 3H-moxestrol binding inhibiting effect (IC50) ratio)” value turned out to be 78%.
In the case of `CSc1ccc(-c2c(C)c3cc(O)ccc3n2CCCCCCCC(=O)NC(C)(C)C)cc1` [Example 255], the “RBA (relative binding affinity, 3H-moxestrol binding inhibiting effect (IC50) ratio)” value is given as 41%.
In the case of `CSc1ccc(-c2c(C)c3cc(O)ccc3n2CCCCCCCC(=O)N2CCCCC2)cc1` [Example 258] it was 41%; in that of `CSc1ccc(-c2c(C)c3cc(O)ccc3n2CCCCCCCCN2CCOCC2)cc1` [Example 272], 48%.
To `CSc1ccc(-c2c(C)c3cc(O)ccc3n2CCCCCCCCNC(C)C)cc1` [Example 274] belongs 65%; to `CSc1ccc(-c2c(C)c3cc(O)ccc3n2CCCCCCCCN(C)C)cc1` [Example 279], 82%.
To `CSc1ccc(-c2c(C)c3cc(O)ccc3n2CCCCCCCCNC2CCC2)cc1` [Example 280] belongs 116%; to `CSc1ccc(-c2c(C)c3cc(O)ccc3n2CCCCCCCCN2CCCC2)cc1` [Example 281, 5-hydroxy-3-methyl-2-(4-methylthiophenyl)-1-[8-(1-pyrrolidinyl)octyl]indole], 121%; to `CSc1ccc(-c2c(C)c3cc(O)ccc3n2CCCCCCCCNC(C)(C)C)cc1` [Example 282], 114%.
Consider `CSc1ccc(-c2c(C)c3cc(O)ccc3n2CCCCCCCCN2CCCCC2)cc1` [Example 285], for which the “RBA (relative binding affinity, 3H-moxestrol binding inhibiting effect (IC50) ratio)” value is 93%.
To `CCSc1ccc(-c2cc3cc(O)ccc3n2CCCCCCCCNC(C)C)cc1` [Example 286] belongs 51%.
Turning to `CSc1ccc(-c2c(C)c3cc(O)ccc3n2CCCCCCN2CCSC2)cc1` [Example 291], the “RBA (relative binding affinity, 3H-moxestrol binding inhibiting effect (IC50) ratio)” value is given as 70%.
To `CSc1ccc(-c2c(C)c3cc(O)ccc3n2CCCCCCNC(C)c2ccccc2)cc1` (stereo not drawn) [Example 312, 5-hydroxy-3-methyl-2-(4-methylthiophenyl)-1-[6-(1-phenylethyl)aminohexyl]indole] belongs 42%.

Values taken from patent US5496844A, “Indole derivatives” (Otsuka Pharmaceutical Factory, Inc., priority 1992, dated 1996).
